Reference: publication PMC11126936, “Reactivating Hippo by drug compounds to suppress gastric cancer and enhance chemotherapy sensitivity” (The Journal of Biological Chemistry, 2024)
Several values for one entry are separate records, joined by “and”; a condition that tells them apart may be missing. Equal entries are not always repeated. Entries after “also recorded” stand apart in the source; their conditions may differ. Where two headings read alike, the source gives them in different places. One block for each molecule: values may come before it.

Legend:
HGC-27 cells [1] = assay: Colony formation assay in HGC-27 cells; conditions: about 2 weeks
MST2^Mut (L33/E35/V41A) = target: T1, MST2^Mut (L33/E35/V41A) (Homo sapiens, UniProt Q13188, E35A/L33A/V41A); assay: MST assay, binding to MST2 mutant; conditions: L33/E35/V41 substituted with alanine
T1 construct: the mutant MBP-tagged MST2 (amino acid 1–308, L33/E35/V41A); MBP; made in house; host or cells: E. coli BL21 Codon plus (DE3)

MST2 = target: T2, MST2 (Homo sapiens, UniProt Q13188); assay: MST assay, binding to MST2
T2 construct: made in house; host or cells: E. coli BL21 Codon plus (DE3)
T2 sequence (Q13188 1-491): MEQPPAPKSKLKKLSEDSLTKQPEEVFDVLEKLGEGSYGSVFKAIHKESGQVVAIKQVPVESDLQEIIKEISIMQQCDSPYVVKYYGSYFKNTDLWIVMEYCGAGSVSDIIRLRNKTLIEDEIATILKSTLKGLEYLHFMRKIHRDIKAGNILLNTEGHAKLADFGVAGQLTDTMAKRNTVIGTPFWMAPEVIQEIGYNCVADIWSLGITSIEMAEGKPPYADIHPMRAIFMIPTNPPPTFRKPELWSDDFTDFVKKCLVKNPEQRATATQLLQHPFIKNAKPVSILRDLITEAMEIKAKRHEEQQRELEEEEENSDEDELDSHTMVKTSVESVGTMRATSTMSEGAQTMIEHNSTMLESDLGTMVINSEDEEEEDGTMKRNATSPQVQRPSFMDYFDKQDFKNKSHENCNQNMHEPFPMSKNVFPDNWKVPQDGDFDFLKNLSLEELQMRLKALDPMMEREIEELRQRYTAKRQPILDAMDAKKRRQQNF

HEK293A cells = assay: DNA repair after etoposide (residual γ-H2AX immunoblot); type: cell-based; conditions: 20 μM etoposide 2 h, then with or without compound 6 h
HGC-27 cells [2] = assay: Cell viability assay in HGC-27 cells; type: cell-based, human; conditions: for inhibition of HGC-27 cell growth / viability: result in words
[3] = tested on: YAP target gene CTGF in HGC-27 cells; assay: CTGF mRNA (qPCR) in HGC-27 cells; conditions: 48 h
MKN-28 cells = assay: Killing efficiency in MKN-28 cells; type: cell-based, human
STRN3–MST2 interaction = target: T3, STRN3–MST2 interaction (Homo sapiens, UniProt Q13188); assay: MBP/GST pull-down and Co-IP, STRN3–MST2; type: binding
T3 construct: GST-tagged MST2 (amino acid 1–308), MBP-tagged MST2 (amino acid 1–308); made in house; host or cells: E. coli BL21 Codon plus (DE3)

AGS cells = assay: Killing efficiency in AGS cells; type: cell-based, human
[4] = tested on: YAP target gene CTGF in GES-1 cells; assay: CTGF mRNA (qPCR) in GES-1 cells; conditions: 48 h
PP2Aa–STRN3 interaction [5] = target: T4, PP2Aa–STRN3 interaction (Homo sapiens, UniProt P30153); assay: Co-IP of HA-PP2Aa and Flag-STRN3 in HEK293A cells; type: cell-based; set-up: expressed in transfected cells; host or cells: HEK293A
Target sequence in this assay (P30153 whole entry): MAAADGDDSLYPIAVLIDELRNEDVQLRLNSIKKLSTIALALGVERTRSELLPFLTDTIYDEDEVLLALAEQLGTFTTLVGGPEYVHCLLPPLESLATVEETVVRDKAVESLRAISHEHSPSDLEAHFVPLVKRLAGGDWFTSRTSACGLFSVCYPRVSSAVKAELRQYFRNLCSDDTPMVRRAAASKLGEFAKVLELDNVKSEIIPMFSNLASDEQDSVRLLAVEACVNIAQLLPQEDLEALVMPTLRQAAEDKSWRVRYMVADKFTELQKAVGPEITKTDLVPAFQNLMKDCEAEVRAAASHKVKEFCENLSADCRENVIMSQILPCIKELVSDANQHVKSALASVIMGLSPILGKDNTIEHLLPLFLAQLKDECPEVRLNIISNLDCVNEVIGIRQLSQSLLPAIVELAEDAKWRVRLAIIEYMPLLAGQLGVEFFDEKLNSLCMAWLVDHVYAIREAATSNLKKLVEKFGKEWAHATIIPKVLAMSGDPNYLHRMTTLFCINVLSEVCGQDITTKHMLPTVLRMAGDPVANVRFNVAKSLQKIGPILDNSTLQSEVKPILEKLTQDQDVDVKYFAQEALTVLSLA

zebrafish larvae = conditions: ref [65], [66]; cited from earlier work
PP2Aa = target: T5, PP2Aa (Homo sapiens, UniProt P30153); assay: MST assay, binding to PP2Aa
T5 construct: GST; made in house; host or cells: E. coli BL21 Codon plus (DE3)

PP2Aa–STRN3 interaction [6] = target: T4, PP2Aa–STRN3 interaction; assay: GST pulldown assay, PP2Aa–STRN3; type: binding; set-up: GST; SUMO; made in house; host or cells: E. coli BL21 Codon plus (DE3); conditions: recombinant GST-PP2Aa and His-Sumo-STRN3; up to 10 μM compound
Target sequence in this assay (P30153 8-589): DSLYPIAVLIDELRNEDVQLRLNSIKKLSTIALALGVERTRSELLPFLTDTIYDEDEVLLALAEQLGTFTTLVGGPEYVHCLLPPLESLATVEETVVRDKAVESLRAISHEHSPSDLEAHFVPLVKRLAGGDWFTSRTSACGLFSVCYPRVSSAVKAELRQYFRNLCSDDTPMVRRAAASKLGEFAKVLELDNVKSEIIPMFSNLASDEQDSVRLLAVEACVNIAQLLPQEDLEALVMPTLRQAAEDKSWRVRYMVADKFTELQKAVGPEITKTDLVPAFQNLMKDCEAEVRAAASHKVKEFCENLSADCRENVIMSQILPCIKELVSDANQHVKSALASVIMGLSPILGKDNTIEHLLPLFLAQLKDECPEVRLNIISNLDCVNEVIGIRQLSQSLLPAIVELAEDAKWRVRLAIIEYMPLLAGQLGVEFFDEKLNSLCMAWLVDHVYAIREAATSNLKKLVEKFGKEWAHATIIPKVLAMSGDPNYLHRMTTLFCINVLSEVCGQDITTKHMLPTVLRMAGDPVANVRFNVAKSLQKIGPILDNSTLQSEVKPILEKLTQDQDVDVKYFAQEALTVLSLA

NUGC-4 cells = assay: NUGC-4 cell viability, XMU-MP-1 with cisplatin; type: cell-based, human
AGS cells xenograft = assay: AGS xenograft tumor model; conditions: intratumoral injection, five consecutive days, vs control
11 different GC cells = assay: Cisplatin cell viability in 11 GC cell lines; conditions: read-out: IC50, cisplatin-sensitive GC cell lines; cell lines with higher pMST1/2 such as NUGC-4
purified PP2Aa (8–589) [7] = target: T6, purified PP2Aa (8–589) (UniProt P30153 8-589); conditions: both partners purified
T6 construct: As used in ITC and MST

[8] = target: T7, purified MST2 recombinant protein (UniProt Q13188); assay: MST; Monolith NT.115, 25 °C, fluorescent-labeled protein; STRN3 and MST2 without CX
T7 sequence (Q13188 1-491, species assumed, looked up): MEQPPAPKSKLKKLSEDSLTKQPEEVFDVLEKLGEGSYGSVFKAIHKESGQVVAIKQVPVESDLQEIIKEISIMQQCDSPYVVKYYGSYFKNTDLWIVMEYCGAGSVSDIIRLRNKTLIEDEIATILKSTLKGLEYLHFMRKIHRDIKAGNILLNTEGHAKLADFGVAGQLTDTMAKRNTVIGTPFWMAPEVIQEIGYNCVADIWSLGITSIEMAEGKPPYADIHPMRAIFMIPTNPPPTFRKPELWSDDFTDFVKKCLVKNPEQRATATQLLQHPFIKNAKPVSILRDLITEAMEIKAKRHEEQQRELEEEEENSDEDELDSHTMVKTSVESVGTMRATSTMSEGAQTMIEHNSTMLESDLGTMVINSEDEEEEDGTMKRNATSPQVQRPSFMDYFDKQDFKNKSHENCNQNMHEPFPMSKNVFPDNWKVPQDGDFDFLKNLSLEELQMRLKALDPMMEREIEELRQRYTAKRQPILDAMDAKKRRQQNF

purified PP2Aa (8–589) [9] = target: T6, purified PP2Aa (8–589); assay: MST; Monolith NT.115, 25 °C, fluorescent-labeled protein; STRN3 to PP2Aa, also with DSF or TH added; conditions: both partners purified
[10] = target: T8, GST-tagged MST2 (amino acid 1–308) (UniProt Q13188 1-308); conditions: both partners purified
T8 construct: MST2 kinase, amino acid 1-308; also called GST-MST2; source: E. coli BL21 Coden plus (DE3), purified (GST beads, size-exclusion chromatography)
T8 sequence (looked up): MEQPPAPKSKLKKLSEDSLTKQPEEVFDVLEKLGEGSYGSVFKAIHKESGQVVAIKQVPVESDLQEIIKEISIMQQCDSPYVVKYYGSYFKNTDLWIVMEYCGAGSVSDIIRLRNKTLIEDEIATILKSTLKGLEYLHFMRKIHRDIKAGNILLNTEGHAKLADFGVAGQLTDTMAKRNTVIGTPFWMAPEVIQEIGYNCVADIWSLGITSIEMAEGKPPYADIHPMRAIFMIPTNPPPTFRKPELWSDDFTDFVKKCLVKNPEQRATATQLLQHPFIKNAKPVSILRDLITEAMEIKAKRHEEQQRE

[11] = target: T9, MBP-tagged MST2 (amino acid 1–308) (UniProt Q13188 1-308); conditions: both partners purified
T9 construct: MST2 kinase, amino acid 1-308; also called MBP-MST2; source: E. coli BL21 Coden plus (DE3), purified (MBP beads, size-exclusion chromatography)
T9 sequence (looked up): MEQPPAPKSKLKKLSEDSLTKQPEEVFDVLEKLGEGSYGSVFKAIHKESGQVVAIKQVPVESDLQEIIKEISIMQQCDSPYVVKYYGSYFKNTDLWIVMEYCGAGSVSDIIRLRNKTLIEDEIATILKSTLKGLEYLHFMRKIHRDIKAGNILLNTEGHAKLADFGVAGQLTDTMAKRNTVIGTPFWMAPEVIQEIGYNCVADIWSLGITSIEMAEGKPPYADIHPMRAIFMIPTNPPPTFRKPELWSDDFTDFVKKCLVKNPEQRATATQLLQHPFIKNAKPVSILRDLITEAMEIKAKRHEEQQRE

[12] = Homo sapiens, HGC-27, cell viability, read-out: IC50 values in HGC-27 cells
[13] = cell viability, read-out: IC50 values in HGC-27 cells

T5 sequence (P30153 8-589): as the sequence (P30153 8-589) above
T6 sequence (P30153 8-589): as the sequence (P30153 8-589) above
T1 sequence (Q13188 1-308 L33A/E35A/V41A): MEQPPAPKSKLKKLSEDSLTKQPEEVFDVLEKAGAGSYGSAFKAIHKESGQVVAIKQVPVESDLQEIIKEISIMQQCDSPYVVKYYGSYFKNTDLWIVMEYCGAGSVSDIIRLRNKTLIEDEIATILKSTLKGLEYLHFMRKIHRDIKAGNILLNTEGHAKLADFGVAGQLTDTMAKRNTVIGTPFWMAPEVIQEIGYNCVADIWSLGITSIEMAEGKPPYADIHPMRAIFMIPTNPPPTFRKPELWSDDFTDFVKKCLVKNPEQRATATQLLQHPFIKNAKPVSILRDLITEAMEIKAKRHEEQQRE

Molecule: CN1CCCN(C(=O)c2cccc(-c3ccc(C=C4C(=O)Nc5ccc(Cl)cc54)o3)c2)CC1 [CX, CX-6258]
colony formation of HGC-27 cells (HGC-27 cells [1]): inhibited
binding to MST2^Mut (MST2^Mut (L33/E35/V41A)): failed to bind with CX
Kd (MST2): 0.339 µM
effect on STRN3–MST2 binding (MST2; in the presence of compound): could not bind with each other in the presence of CX
DNA repair (residual γ-H2AX) (HEK293A cells): markedly attenuated the repair
inhibition of HGC-27 cell growth / viability (HGC-27 cells [2]): significantly inhibit; also recorded: inhibited the cell viability; also recorded: comparable with DSF
mRNA levels of YAP target gene CTGF [3]: dose-dependently decreased
sensitization of GC cells to cisplatin (MKN-28 cells; 1 μM CX and 20 μM cisplatin): greatly sensitized GC cells to cisplatin
STRN3–MST2 interaction in MBP pull-down (STRN3–MST2 interaction): able to disrupt

Molecule: O=c1c2ccccc2[se]n1-c1ccccc1 [Ebselen]
IC50 (HGC-27 cells [2]; [12]): 27.5 µM

Molecule: Oc1cc2c(cc1O)C1c3ccc(O)c(O)c3OCC1(O)C2 (centres unmarked) [HAEMATOXYLIN]
IC50 (HGC-27 cells [2]; [12]): 37.9 µM

Molecule: O=C([O-])c1ccccc1-c1c2cc(Br)c(=O)cc-2oc2[c]([Hg+])c([O-])c(Br)cc12.[Na+].[Na+].[OH-] [Merbromin]
IC50 (HGC-27 cells [2]; [13]): 15.2 µM

Molecule: CC(=O)[O][Hg][c]1ccccc1 [Phenylmercuric acetate]
IC50 (HGC-27 cells [2]; cell viability, listed as phenylmercuric acetate, read-out: IC50 values in HGC-27 cells): < 5 µM
IC50 (HGC-27 cells [2]; [13]): 4.05 µM

STRN3–MST2 interaction in MBP pull-down (STRN3–MST2 interaction): able to disrupt
Molecule: Cc1ccc(C(=O)Nc2ccc(S(=O)(=O)[O-])c3cc(S(=O)(=O)[O-])cc(S(=O)(=O)[O-])c23)cc1NC(=O)c1cccc(NC(=O)Nc2cccc(C(=O)Nc3cc(C(=O)Nc4ccc(S(=O)(=O)[O-])c5cc(S(=O)(=O)[O-])cc(S(=O)(=O)[O-])c45)ccc3C)c2)c1.[Na+].[Na+].[Na+].[Na+].[Na+].[Na+] [Suramin Sodium Salt]
inhibition of HGC-27 cell growth / viability (HGC-27 cells [2]): not

Molecule: CN(C)C(=S)SSC(=S)N(C)C [TH, thiram]
colony formation of HGC-27 cells (HGC-27 cells [1]): significantly inhibited colony formation
sensitization of GC cells to cisplatin (AGS cells; 0.1 μM TH and 10 μM cisplatin): significantly sensitized GC cells to cisplatin
mRNA levels of YAP target gene CTGF [4]: no significant change
PP2Aa–STRN3 interaction in Co-IP (PP2Aa–STRN3 interaction [5]): further validated by Co-IP assay
adverse effects in zebrafish larvae (zebrafish larvae): adverse effects
Kd (PP2Aa): 1.52 µM
binding affinity to PP2Aa relative to that of STRN3 to PP2Aa (PP2Aa): 14 fold
effect on binding of STRN3 to PP2Aa (PP2Aa; compound added): efficiently disrupt
DNA repair (residual γ-H2AX) (HEK293A cells): decreased
PP2Aa–STRN3 association in GST pulldown (PP2Aa–STRN3 interaction [6]): efficiently disrupt
IC50 (HGC-27 cells [2]; [12]): 0.4 µM
effect of addition of copper ion on suppression of HGC-27 cell viability by the compound (HGC-27 cells [2]; compound-Cu complex vs compound): markedly enhanced

Molecule: COc1cc2c(NC3CCN(CC4CCCCC4)CC3)nc(N3CCCN(C(C)C)CC3)nc2cc1OCCCN1CCCCC1 [UNC0631]
IC50 (HGC-27 cells [2]; [13]): < 5 µM and 2.86 µM

Molecule: COc1ccc(C(=O)O[C@H]2CC[C@@]3(C)[C@@H]4CC[C@H]5[C@]6(O)C[C@H](O)[C@@]7(O)[C@@H](CN8C[C@@H](C)CC[C@H]8[C@@]7(C)O)[C@]6(O)C[C@@]53O[C@]24O)cc1OC [Veratridine]
IC50 (HGC-27 cells [2]; Homo sapiens, HGC-27, read-out: IC50 values in HGC-27 cells): 15.7 µM

Molecule: CN1C(=O)c2sccc2N(C)c2nc(Nc3ccc(S(N)(=O)=O)cc3)ncc21 [XMU-MP-1]
effect of co-treatment on cisplatin sensitivity (NUGC-4 cells): triggered much more resistance to cisplatin

Molecule: N.N.[Cl][Pt][Cl] [cisplatin]
efficiency in killing cancer cells (AGS cells; 0.05 μM DSF, 20 μM cisplatin, alone or combined): about 20%
tumor weight / tumor growth (AGS cells xenograft): modestly lower tumor weights
IC50 (11 different GC cells): < 20 µM
efficiency in killing cancer cells (MKN-28 cells; nontoxic concentrations, alone or combined): about 20%

Kd (purified PP2Aa (8–589) [7]): 11.9 µM
Kd [8]: 0.624 µM
Kd (purified PP2Aa (8–589) [9]): 20.7 µM
B1: STRN3 (64–145) (domain or fragment, UniProt Q13033 64-145, looked up)
chain: TIPGILHYIQHEWARFEMERAHWEVERAELQARIAFLQGERKGQENLKKDLVRRIKMLEYALKQERAKYHKLKYGTELNQGD
notes: STRN3 (striatin-3), amino acid 64-145

Kd (MST2): 0.624 µM
B2: STRN3: recombinant His-SUMO-tagged STRN3 (amino acid 64–145), binding partner of PP2Aa and MST2 (protein, UniProt Q13033 64-145, looked up, fragment)
chain: TIPGILHYIQHEWARFEMERAHWEVERAELQARIAFLQGERKGQENLKKDLVRRIKMLEYALKQERAKYHKLKYGTELNQGD
modifications: His-SUMO tag

binding result [10]: binds
binding result [11]: binds
B3: His-SUMO-tagged STRN3 (amino acid 64–145) (domain or fragment, UniProt Q13033 64-145, looked up)
chain: TIPGILHYIQHEWARFEMERAHWEVERAELQARIAFLQGERKGQENLKKDLVRRIKMLEYALKQERAKYHKLKYGTELNQGD
notes: STRN3 (striatin-3), amino acid 64-145; Used where the tag is named or used for capture: the GST and MBP pull-downs and the nickel chelate acceptor beads of the AlphaScreen; also called HS-STRN3; His-tagged STRN3
